In US10196404B2, “MCL-1 inhibitors and methods of use thereof” (AstraZeneca AB, priority 2016, dated 2019):
Each block holds one molecule with its values, some of them ahead of it.

Columns and labels:
[1] = tested on: MOLP-8 (multiple myeloma) cells; experiment: Caspase Activity Assay (Caspase-Glo 3/7, 6 h treatment), MOLP-8; format: cell-based, human; conditions: MOLP-8 cells, geometric mean of multiple measurements
Method: (§1) This is a cell assay to measure the induction of apoptosis in MOLP-8 (multiple myeloma), KMS-12-BM (multiple myeloma), MV-4-11 (acute myeloid leukemia), and NCl-H23 (non-small cell lung cancer) cells after 6 h treatment. On the first day, 3000 (MOLP-8, KMS-12-BM, MV-4-11) or 1250 (NCl-H23) cells/well were seeded in 50 μL of growth media (IMDM+10% FBS+2 mM L-Glu for MV-4-11 and RPM1-1640+10% FBS+2 mM L-Glu for all other cell lines) in 384-well white microplates, and incubated overnight (37° C., 5% CO2, 80% RH). On the second day, the cells were treated with Mcl-1 inhibitors using an ECHO acoustic liquid handler (10 point half-log serial dilution, 31.5 μM top concentration, 0.3% final DMSO concentration). After 6 h incubation (37° C., 5% CO2, 80% RH), 25 μL of Caspase-Glo 3/7 reagent (Promega) was added into each well, and plates were incubated at room temperature for 30 min protected from light. Luminescence was recorded using an Infinite M200 microplate reader (Tecan) with a 100 ms integration time. EC50 values were calculated using GeneData analysis software.

[2] = tested on: KMS-12-BM (multiple myeloma) cells; experiment: Caspase Activity Assay (Caspase-Glo 3/7, 6 h treatment), KMS-12-BM; format: cell-based; conditions: KMS-12-BM cells, geometric mean of multiple measurements
Method: as §1

NCl-H929 tumor = experiment: In vivo combination efficacy in NCI-H929 human multiple myeloma tumor model; parameters: species or system C.B-17 SCID female mice; conditions: NCl-H929 tumor bearing mice; for anti-tumor activity, agent alone: Example 2 30 mg/kg every other week or bortezomib 1 mg/kg weekly
Method: (§2) Example 2 was formulated in 30% 2-Hydroxypropyl-beta-cyclodextrin (HPBCD), pH 9 and dosed as intravenously (iv) in a volume of 5 ml/kg. 5×10^6 MOLP-8 tumor cells or 10^7 NCl-H929 tumor cells were injected subcutaneously in the right flank of C.B-17 SCID female mice in a volume of 0.1 mL. Tumor volumes (measured by caliper) were calculated using the formula: length (mm)×width (mm)^2[…]. For efficacy studies, mice were randomized based on tumor volumes and growth inhibition was assessed by comparison of the differences in tumor volume between control and treated groups. Dosing began when mean tumor size reached approximately 160 mm^3 for MOLP-8 and approximately 230 mm^3 for NCl-H929.

[3] = tested on: MV-4-11 (acute myeloid leukemia) cells; experiment: Caspase Activity Assay (Caspase-Glo 3/7, 6 h treatment), MV-4-11; format: cell-based, human; conditions: MV-4-11 cells, geometric mean of multiple measurements
Method: as §1

MV-4-11 tumor = experiment: In vivo efficacy in MV-4-11 human acute myeloid leukemia tumor model; parameters: species or system C.B-17 SCID female mice; conditions: for mice remaining tumor free / tumor regression: MV-4-11 tumors
Method: as §2, with “a single intravenous” for “intravenously”, “(iv) administration” for “(iv)”, “10^6 MV-4-11” for “5×10^6 MOLP-8 tumor cells or 10^7 NCl-H929”, “mL. Tumor volumes (measured by caliper), animal body weight, and tumor conditions were recorded twice weekly for the duration of the study.” for “mL.”, “approximately” for “approximately 160 mm^3 for MOLP-8 and approximately”, “mm^3.” for “mm^3 for NCl-H929.”

MOLP-8 tumor = experiment: In vivo efficacy in MOLP-8 human multiple myeloma tumor model; parameters: species or system C.B-17 SCID female mice; conditions: MOLP-8 tumor bearing mice
Method: as §2

[4] = tested on: NCl-H23 (non-small cell lung cancer) cells; experiment: Caspase Activity Assay (Caspase-Glo 3/7, 6 h treatment), NCI-H23; format: cell-based; conditions: geometric mean of multiple measurements
Method: as §1

EC50 [1]: 30 nM
EC50 [2]: 43 nM
EC50 [3]: 20 nM
Structure (SMILES): Cc1c2c(nn1C)CSCc1cc(n(C)n1)CSc1cc(c3ccccc3c1)OCCCc1c(C(=O)O)n(C)c3c-2c(Cl)ccc13 (atropisomer, axis not shown; (Ra)) [Example 2, (Ra)-(+)-17-chloro-5,13,14,22-tetramethyl-28-oxa-2,9-dithia-5,6,12,13,22-pentaazaheptacyclo[27.7.1.1^4,7.0^11,15.0^16,21.0^20,24.0^30,35]octatriaconta-1(37),4(38),6,11,14,16,18,20,23,29,31,33,35-tridecaene-23-carboxylic Acid]
anti-tumor activity, agent alone (NCl-H929 tumor): no significant anti-tumor activity
anti-tumor effect of combination (NCl-H929 tumor; Example 2 every other week at 30 mg/kg in combination with weekly bortezomib at 1 mg/kg): tumor regression
mice remaining tumor free (MV-4-11 tumor; once weekly iv 30 mg/kg, 16 days after initiation of therapy): 1 of 6
tumor regression (MV-4-11 tumor; once weekly iv 30 mg/kg, at Day 6): ~73%
tumor regression (MV-4-11 tumor; single iv dose of 100 mg/kg): 100%
mice remaining tumor free (MV-4-11 tumor; single iv dose of 100 mg/kg, 16 days after therapy): 4 of the 6
anti-tumor activity (qualitative) (MV-4-11 tumor; mice bearing subcutaneous MV-4-11 tumors, iv): significant anti-tumor activity
anti-tumor activity (qualitative) (MOLP-8 tumor; iv): dose dependent anti-tumor activity
tumor growth inhibition (TGI) (MOLP-8 tumor; single iv administration at 10 mg/kg): 52%
tumor growth inhibition (TGI) (MOLP-8 tumor; single iv administration at 30 mg/kg): 92%
mice with complete tumor regression (MOLP-8 tumor; single iv administration at 60 or 100 mg/kg, measured 10 days after dosing): 13 out of 14

EC50 ([1]; Homo sapiens, MOLP-8, 6 h): > 2300 nM
EC50 ([2]; Homo sapiens, KMS-12-BM, 6 h): > 1030 nM
EC50 ([3]; Homo sapiens, MV4-11, 6 h): > 1580 nM
EC50 ([4]; Homo sapiens, NCI-H23, 6 h): > 10000 nM
Structure (SMILES): Cc1c2c(nn1C)CSCc1cc(n(C)n1)CSc1cc(c3ccccc3c1)OCCCc1c(C(=O)O)n(C)c3c-2c(Cl)ccc13 (single isomer, unassigned) [Example 3, (Sa)-(−)-17-chloro-5,13,14,22-tetramethyl-28-oxa-2,9-dithia-5,6,12,13,22-pentaazaheptacyclo[27.7.1.1^4,7.0^11,15.0^16,21.0^20,24.0^30,35]octatriaconta-1(37),4(38),6,11,14,16,18,20,23,29,31,33,35-tridecaene-23-carboxylic Acid]

EC50 ([1]; Homo sapiens, MOLP-8, 6 h): 44 nM
EC50 ([2]; Homo sapiens, KMS-12-BM, 6 h): 48 nM
EC50 ([3]; Homo sapiens, MV4-11, 6 h): 24 nM
EC50 [4]: 531 nM
Structure (SMILES): Cc1c2c(nn1C)CSCc1cc(n(C)n1)CSc1cc(c3ccccc3c1)OCCCc1c(C(=O)O)n(C)c3c-2c(Cl)ccc13 [Example 1, 17-chloro-5,13,14,22-tetramethyl-28-oxa-2,9-dithia-5,6,12,13,22-pentaazaheptacyclo[27.7.1.1^4,7.0^11,15.0^16,21.0^20,24.0^30,35]octatriaconta-1(37),4(38),6,11,14,16,18,20,23,29,31,33,35-tridecaene-23-carboxylic Acid]

Structure (SMILES): CC(C)C[C@H](NC(=O)[C@H](Cc1ccccc1)NC(=O)c1cnccn1)B(O)O [bortezomib, reference compound]
anti-tumor activity, agent alone (NCl-H929 tumor): no significant anti-tumor activity
